Measurements reported in US12240844B2 (Voronoi, Inc., priority 2019, dated 2025).
pIC50: −log10 of the molar value.

Key:
[1] = system: MDA-MB-231 cell line; assay: MDA-MB-231 cancer cell proliferation inhibition (Cell Titer-Glo); format: cell-based; details: Homo sapiens, MDA-MB-231 triple-negative breast cancer cell line, 72 hours
Experimental: (§1) In order to evaluate the cancer cell proliferation inhibitory activity of the compounds of the present invention, the following experiments were performed.
(§2) To evaluate the cancer cell proliferation inhibitory effect, the cell growth rate analysis was performed while culturing MDA-MB-231 cell line (Korean Cell Line Bank #30026) and MDA-MB-468 cell line as the triple-negative breast cancer cell line, and SHP-77 (ATCC #CRL-2195) as the small cell lung cancer cell line in DMEM (HyClone #SH30243) and RPMI medium (HyClone #SH3027.01), respectively. More specifically, the cell lines were each plated at 2000 cells/100 μl in each well of a 96-well flat-bottom plate (coming #3903), and then the example compounds having eleven concentrations which were diluted by ⅓ so that the final concentrations were 10.000000, 3.333333, 1.111111, 0.370370, 0.123457, 0.041152, 0.013717, 0.004572, 0.001524, 0.000508 and 0.000169 μM were treated. After 72 hours, 100 μl of Cell Titer-Glo (Promega G7573) was treated, incubated at RT for 10 minutes, and then luminescence was measured using a microplate reader. The measured luminescence degree was calculated as GI50 using Prism (version 8.2 GraphPad) software.
(§3) In the table below, the following designations were used for the evaluation of proliferation inhibitory activity.

[2] = biological target: LRRK2 (Homo sapiens, UniProt Q5S007); assay: LRRK2 enzyme inhibition, ADP-Glo kinase assay; format: biochemical; parameters: purchased Invitrogen PR8604B
Method in brief: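 ADP-Glo luminescence read after 2 h at 25° C, 10 μM ATP, 25 ng purified human LRRK2 and […] substrate in Tris-HCl pH7.4 buffer with MgCl2, BSA, DTT. Twelve final concentrations, 50 μM down to 0.000001024 μM; IC50 (nM) from inhibition relative to untreated solvent control.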

[3] = biological target: LRRK2 (G2019S) (Homo sapiens, UniProt Q5S007, G2019S); assay: LRRK2 G2019S enzyme inhibition, ADP-Glo kinase assay; format: biochemical; parameters: purchased SignalChem L10-12GG
Method in brief: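 Activity read as ADP-Glo luminescence, normalized to untreated solvent control, with IC50 (nM) fitted over 12 final compound levels (top 50 μM). Reaction: 2 h, 25° C, human LRRK2 G2019S 16 ng, ATP 25 μM, substrate 0.2 μg, in Tris-HCl pH 7.4 with MgCl2, BSA and DTT.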

[4] = system: SHP-77; assay: SHP-77 cancer cell proliferation inhibition (Cell Titer-Glo); format: cell-based; details: Homo sapiens, SHP77, SHP-77 small cell lung cancer cell line, 72 hours
Experimental: as §1, §2, §3

[5] = biological target: T1, human GST-CLK1 (129-end) (Homo sapiens, UniProt P49759); assay: GST-CLK1 enzyme inhibition, ADP-Glo kinase assay; format: biochemical; details: ATP 10 uM
T1 construct: purified human GST-CLK1 (129-end, Signalchem) enzyme; GST; purchased Signalchem
Method in brief: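 ADP formation was read by ADP-Glo luminescence after 1 h at 25° C with 3 ng human GST-CLK1 (129-end), substrate and 10 uM ATP in Tris pH 7.4 buffer containing MgCl2, BSA and DTT. Inhibition relative to untreated solvent control gave IC50 (nM), run in triplicate.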

[6] = biological target: T2, human GST-DYRK1A (full length) (Homo sapiens, UniProt Q13627); assay: GST-DYRK1A enzyme inhibition, ADP-Glo kinase assay; format: biochemical; details: read-out: DYRK1 IC50
T2 construct: purified human GST-DYRK1A (full length, Thermo scientifics) enzyme; GST; purchased Thermo scientifics
Method in brief: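 ADP-Glo luminescence quantified kinase activity after a 1 h, 25° C reaction of 10 ng full-length GST-tagged human DYRK1A, substrate and 10 uM ATP in Tris-HCl buffer pH 7.4 with MgCl2, BSA and DTT. Triplicate IC50 values (nM) calculated relative to untreated solvent control.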

[7] = system: human DYRK1A and Tau; assay: Tau phosphorylation inhibition, ClariCELL Kinase Cell-Based Assay (Carnabio)
Experimental: Tau phosphorylation inhibitory efficacy was measured using the ClariCELL™ Kinase Cell-Based Assay service of Carnabio, located in the United States. The compounds are exposed to human embryonic kidney ([…]) cells transiently expressing human DYRK1A and Tau, and then the cells are lysed to release cellular proteins. At this time, the released Tau is captured on a plate, and the degree of phosphorylation is quantified by ELISA using an antibody specific for Tau phosphorylation.

LRRK2, sequence (Q5S007 970-2527 limits assumed): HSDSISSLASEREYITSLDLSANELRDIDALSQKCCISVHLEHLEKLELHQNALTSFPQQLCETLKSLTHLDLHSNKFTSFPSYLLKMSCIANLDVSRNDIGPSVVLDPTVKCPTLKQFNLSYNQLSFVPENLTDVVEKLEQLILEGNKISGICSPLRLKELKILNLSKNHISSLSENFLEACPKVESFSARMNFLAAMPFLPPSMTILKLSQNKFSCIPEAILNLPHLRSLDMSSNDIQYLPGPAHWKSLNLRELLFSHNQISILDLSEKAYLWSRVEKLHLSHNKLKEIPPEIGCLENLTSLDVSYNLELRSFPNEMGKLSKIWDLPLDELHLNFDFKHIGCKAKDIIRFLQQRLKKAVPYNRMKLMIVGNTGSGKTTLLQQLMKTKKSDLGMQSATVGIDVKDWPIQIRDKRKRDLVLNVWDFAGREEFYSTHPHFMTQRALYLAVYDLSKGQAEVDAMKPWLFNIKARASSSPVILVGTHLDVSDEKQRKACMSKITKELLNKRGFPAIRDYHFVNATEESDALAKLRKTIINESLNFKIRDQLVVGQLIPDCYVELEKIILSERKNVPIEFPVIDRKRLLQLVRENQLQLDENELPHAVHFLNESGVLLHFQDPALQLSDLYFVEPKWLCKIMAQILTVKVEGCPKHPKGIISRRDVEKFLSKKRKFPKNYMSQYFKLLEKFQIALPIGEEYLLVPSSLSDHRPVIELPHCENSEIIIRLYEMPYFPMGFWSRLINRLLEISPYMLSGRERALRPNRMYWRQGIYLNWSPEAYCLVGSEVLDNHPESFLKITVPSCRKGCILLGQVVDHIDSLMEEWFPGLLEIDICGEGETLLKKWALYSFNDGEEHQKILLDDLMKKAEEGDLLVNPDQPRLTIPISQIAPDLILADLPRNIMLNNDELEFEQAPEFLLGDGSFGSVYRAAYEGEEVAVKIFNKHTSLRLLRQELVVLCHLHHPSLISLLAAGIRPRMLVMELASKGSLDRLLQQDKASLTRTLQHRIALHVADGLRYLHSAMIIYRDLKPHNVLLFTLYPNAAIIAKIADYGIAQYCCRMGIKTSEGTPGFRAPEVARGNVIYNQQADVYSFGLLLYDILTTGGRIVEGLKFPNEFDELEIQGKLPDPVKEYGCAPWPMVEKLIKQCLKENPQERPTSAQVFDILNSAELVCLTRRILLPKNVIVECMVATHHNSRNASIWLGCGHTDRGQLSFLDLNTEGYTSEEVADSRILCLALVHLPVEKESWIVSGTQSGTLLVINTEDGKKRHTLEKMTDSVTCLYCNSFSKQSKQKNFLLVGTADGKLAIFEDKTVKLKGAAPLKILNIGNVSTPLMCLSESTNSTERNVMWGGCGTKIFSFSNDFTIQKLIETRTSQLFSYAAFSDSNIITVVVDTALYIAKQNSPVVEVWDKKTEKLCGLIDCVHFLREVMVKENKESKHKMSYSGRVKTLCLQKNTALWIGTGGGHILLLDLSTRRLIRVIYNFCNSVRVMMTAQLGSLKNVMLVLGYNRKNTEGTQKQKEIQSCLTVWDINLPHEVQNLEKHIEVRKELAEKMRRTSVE
T1 sequence (P49759 129-484 limits assumed): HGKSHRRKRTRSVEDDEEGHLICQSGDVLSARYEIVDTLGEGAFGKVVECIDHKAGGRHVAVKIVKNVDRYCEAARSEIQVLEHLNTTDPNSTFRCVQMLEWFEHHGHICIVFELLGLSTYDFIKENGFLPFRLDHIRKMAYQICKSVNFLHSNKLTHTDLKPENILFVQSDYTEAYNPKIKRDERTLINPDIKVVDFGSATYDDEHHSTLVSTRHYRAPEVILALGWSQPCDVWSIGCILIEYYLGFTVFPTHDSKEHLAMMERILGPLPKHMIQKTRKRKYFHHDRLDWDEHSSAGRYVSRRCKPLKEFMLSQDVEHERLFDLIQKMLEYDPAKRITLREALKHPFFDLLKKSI
LRRK2 (G2019S), sequence (Q5S007 970-2527 G2019S limits assumed): as the sequence (Q5S007 970-2527 limits assumed) above, with G1050S counted along it

SMILES | GI50 [1] | pIC50 [2] | pIC50 [3] | GI50 [4] | pIC50 [5] | pIC50 [6] | inhibition at 0.25 µM ([7]; 0.25 uM) | inhibition at 0.5 µM ([7]; 0.5 uM) | inhibition at 1 µM ([7]; 1 uM)
CNc1cc(Nc2cc(F)c(S(=O)(=O)N3CCC(N4CCOCC4)CC3)cc2OC)nc2[nH]cc(C(F)(F)F)c12 [Example 265, N^6-(5-fluoro-2-methoxy-4-((4-morpholinopiperidin-1-yl)sulfonyl)phenyl)-N^4-methyl-3-(trifluoromethyl)-1H-pyrrolo[2,3-b]pyridine-4,6-diamine] | 0.301 to 1 µM |  | > 7.00 | 0.301 to 1 µM | 6.00 to 6.52 | 6.52 to 7.00 |  |  | 
COCCNc1cc(Nc2ccc(P3(=O)CCN(C4CCOCC4)CC3)cc2OC)nc2[nH]cc(C(F)(F)F)c12 [Example 95, 4-(3-methoxy-4-((4-((2-methoxyethyl)amino)-3-(trifluoromethyl)-1H-pyrrolo[2,3-b]pyridin-6-yl)amino)phenyl)-1-(tetrahydro-2H-pyran-4-yl)-1,4-azaphosphinane 4-oxide] | 0.301 to 1 µM | 6.52 to 7.00 | 6.52 to 7.00 |  | 6.52 to 7.00 | > 7.00 | 9.5% | 29.2% | 33.3%
CCOc1cc(Nc2ccc(S(=O)(=O)N3CCC(N4CCOCC4)CC3)cc2OC)nc2[nH]cc(C(F)(F)F)c12 [Example 232, 4-ethoxy-N-(2-methoxy-4-((4-morpholinopiperidin-1-yl)sulfonyl)phenyl)-3-(trifluoromethyl)-1H-pyrrolo[2,3-b]pyridin-6-amine] | 0.301 to 1 µM | 6.52 to 7.00 |  | 0.301 to 1 µM | 6.00 to 6.52 | 6.52 to 7.00 |  |  | 
COc1cc(S(=O)(=O)N2CCOCC2)ccc1Nc1cc(NC2CCC2)c2c(C(F)(F)F)c[nH]c2n1 [Example 203, N^4-cyclobutyl-N^6-(2-methoxy-4-(morpholinosulfonyl)phenyl)-3-(trifluoromethyl)-1H-pyrrolo[2,3-b]pyridine-4,6-diamine] | 0.301 to 1 µM | 6.00 to 6.52 |  | 0.301 to 1 µM | 6.00 to 6.52 | 6.00 to 6.52 |  |  | 
COc1cc(S(=O)(=O)N2CCC(N3CCOCC3)CC2)ccc1Nc1cc(NC(C)C)c2c(C(F)(F)F)c[nH]c2n1 [Example 198, N^4-isopropyl-N^6-(2-methoxy-4-((4-morpholinopiperidin-1-yl)sulfonyl)phenyl)-3-(trifluoromethyl)-1H-pyrrolo[2,3-b]pyridine-4,6-diamine] | 0.301 to 1 µM |  |  | 0.301 to 1 µM | 6.00 to 6.52 | 6.00 to 6.52 |  |  | 
CCNc1cc(Nc2ccc(S(=O)(=O)N3CCC(N4CCOCC4)CC3)c3c2OCC3)nc2[nH]cc(C(F)(F)F)c12 [Example 104, N^4-ethyl-N^6-(4-((4-morpholinopiperidin-1-yl)sulfonyl)-2,3-dihydrobenzofuran-7-yl)-3-(trifluoromethyl)-1H-pyrrolo[2,3-b]pyridine-4,6-diamine] | 0.301 to 1 µM | > 7.00 |  | 0.101 to 0.3 µM | 6.00 to 6.52 | 6.00 to 6.52 |  |  | 
CNc1cc(Nc2ccc(S(=O)(=O)N3CCOCC3)cc2OC)nc2[nH]ccc12 [Example 10, N^6-(2-methoxy-4-(morpholinosulfonyl)phenyl)-N^4-methyl-1H-pyrrolo[2,3-b]pyridine-4,6-diamine] | 0.301 to 1 µM |  | 6.52 to 7.00 | 0.301 to 1 µM | 6.00 to 6.52 | 6.00 to 6.52 |  |  | 

Continued, in another order:

GI50 [1] | pIC50 [2] | pIC50 [3] | GI50 [4] | pIC50 [5] | pIC50 [6] | SMILES | inhibition at 0.25 µM ([7]; 0.25 uM) | inhibition at 0.5 µM ([7]; 0.5 uM) | inhibition at 1 µM ([7]; 1 uM)
0.301 to 1 µM | 6.00 to 6.52 | 6.00 to 6.52 | 0.301 to 1 µM | 6.00 to 6.52 | 6.00 to 6.52 | COc1cc(S(=O)(=O)N2CCOCC2)ccc1Nc1cc(NCC(C)C)c2c(C(F)(F)F)c[nH]c2n1 [Example 189, N^4-isobutyl-N^6-(2-methoxy-4-(morpholinosulfonyl)phenyl)-3-(trifluoromethyl)-1H-pyrrolo[2,3-b]pyridine-4,6-diamine] |  |  | 
0.301 to 1 µM | > 7.00 |  | 0.101 to 0.3 µM | 6.00 to 6.52 | 6.00 to 6.52 | COC[C@@H](C)Nc1cc(Nc2ccc(S(=O)(=O)N3CCC(N4CCOCC4)CC3)cc2OC)nc2[nH]cc(C(F)(F)F)c12 [Example 196, (R)-N^6-(2-methoxy-4-((4-morpholinopiperidin-1-yl)sulfonyl)phenyl)-N^4-(1-methoxypropan-2-yl)-3-(trifluoromethyl)-1H-pyrrolo[2,3-b]pyridine-4,6-diamine] |  |  | 
0.051 to 0.1 µM | > 7.00 | > 7.00 | < 0.05 µM | 6.00 to 6.52 | 6.00 to 6.52 | COc1cc(S(=O)(=O)N2CCC(N3CCOCC3)CC2)ccc1Nc1cc(NC2CCC2)c2c(C#N)c[nH]c2n1 [Example 135, 4-(cyclobutylamino)-6-((2-methoxy-4-((4-morpholinopiperidin-1-yl)sulfonyl)phenyl)amino)-1H-pyrrolo[2,3-b]pyridine-3-carbonitrile] |  |  | 
0.051 to 0.1 µM | > 7.00 | 6.52 to 7.00 | < 0.05 µM | 6.00 to 6.52 | 6.00 to 6.52 | COc1cc(S(=O)(=O)N2CCOCC2)ccc1Nc1cc(NC2CC2)c2c(C#N)c[nH]c2n1 [Example 127, 4-(cyclopropylamino)-6-((2-methoxy-4-(morpholinosulfonyl)phenyl)amino)-1H-pyrrolo[2,3-b]pyridine-3-carbonitrile] |  |  | 
< 0.05 µM | > 7.00 | > 7.00 | < 0.05 µM | 6.52 to 7.00 | 6.00 to 6.52 | COc1cc(S(=O)(=O)N2CCC(N3CCOCC3)CC2)ccc1Nc1cc(NC2CC2)c2c(C#N)c[nH]c2n1 [Example 134, 4-(cyclopropylamino)-6-((2-methoxy-4-((4-morpholinopiperidin-1-yl)sulfonyl)phenyl)amino)-1H-pyrrolo[2,3-b]pyridine-3-carbonitrile] |  |  | 
< 0.05 µM | > 7.00 | > 7.00 | < 0.05 µM | 6.00 to 6.52 | 6.00 to 6.52 | CCCNc1cc(Nc2ccc(S(=O)(=O)N3CCC(N4CCOCC4)CC3)cc2OC)nc2[nH]cc(C#N)c12 [Example 139, 6-((2-methoxy-4-((4-morpholinopiperidin-1-yl)sulfonyl)phenyl)amino)-4-(propylamino)-1H-pyrrolo[2,3-b]pyridine-3-carbonitrile] |  |  | 
0.301 to 1 µM | 6.00 to 6.52 |  | 0.301 to 1 µM | 6.00 to 6.52 | 6.00 to 6.52 | COc1cc(S(=O)(=O)N2CCC(N3CCOCC3)CC2)ccc1Nc1cc(NC2CCC2)c2c(C(F)(F)F)c[nH]c2n1 [Example 202, N^4-cyclobutyl-N^6-(2-methoxy-4-((4-morpholinopiperidin-1-yl)sulfonyl)phenyl)-3-(trifluoromethyl)-1H-pyrrolo[2,3-b]pyridine-4,6-diamine] |  |  | 
0.101 to 0.3 µM | > 7.00 |  | 0.051 to 0.1 µM | 6.00 to 6.52 | > 7.00 | COc1cc(S(=O)(=O)N2CCC(N3CCOCC3)CC2)ccc1Nc1cc(NCCS(C)(=O)=O)c2c(C#N)c[nH]c2n1 [Example 141, 6-((2-methoxy-4-((4-morpholinopiperidin-1-yl)sulfonyl)phenyl)amino)-4-((2-(methylsulfonyl)ethyl)amino)-1H-pyrrolo[2,3-b]pyridine-3-carbonitrile] |  |  | 
